Measured values reported in paper PMC8467576, “Novel Ubiquitin Specific Protease-13 Inhibitors Alleviate Neurodegenerative Pathology” (Metabolites, 2021).

Biological target: T1, USP13 (Homo sapiens, UniProt Q92995)
T1 construct: ELISA for USP13 (MyBioSource, Cat # MBS9335287, San Diego, CA, USA); endogenous in cells; host or cells: human SH-SY5Y neuroblastoma cells transfected with human wild-type alpha-synuclein
T1 sequence (Q92995 1-863): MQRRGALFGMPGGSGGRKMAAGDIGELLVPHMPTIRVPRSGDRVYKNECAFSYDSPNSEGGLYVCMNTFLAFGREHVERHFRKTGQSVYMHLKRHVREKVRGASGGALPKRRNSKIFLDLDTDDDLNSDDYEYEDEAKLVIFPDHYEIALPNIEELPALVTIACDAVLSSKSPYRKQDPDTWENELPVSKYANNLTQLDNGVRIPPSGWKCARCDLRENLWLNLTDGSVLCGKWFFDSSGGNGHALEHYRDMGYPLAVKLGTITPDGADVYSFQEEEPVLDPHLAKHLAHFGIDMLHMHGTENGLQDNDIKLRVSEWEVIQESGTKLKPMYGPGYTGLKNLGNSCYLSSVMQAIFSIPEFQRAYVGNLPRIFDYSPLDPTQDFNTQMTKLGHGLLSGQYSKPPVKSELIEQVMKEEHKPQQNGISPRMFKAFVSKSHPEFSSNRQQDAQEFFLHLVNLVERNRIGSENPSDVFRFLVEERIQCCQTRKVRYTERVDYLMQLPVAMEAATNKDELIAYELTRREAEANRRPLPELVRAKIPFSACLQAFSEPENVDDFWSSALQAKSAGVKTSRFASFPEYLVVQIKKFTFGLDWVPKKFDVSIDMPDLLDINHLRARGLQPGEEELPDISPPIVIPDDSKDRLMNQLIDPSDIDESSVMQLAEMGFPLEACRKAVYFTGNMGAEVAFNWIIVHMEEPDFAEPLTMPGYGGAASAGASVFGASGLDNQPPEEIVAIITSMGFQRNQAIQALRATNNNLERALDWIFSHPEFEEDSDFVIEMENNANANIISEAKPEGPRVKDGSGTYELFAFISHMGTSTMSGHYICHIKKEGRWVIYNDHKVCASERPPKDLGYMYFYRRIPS
Experiment: USP13 activity via functional ELISA in alpha-synuclein transfected SH-SY5Y cells
Type: cell-based
Conditions: SH-SY5Y cells transfected with human alpha-synuclein, 5 h, read-out: Estimated IC50 to USP13
Protocol: Stably transfected human neuroblastoma SH-SY5Y cells with human wild-type alpha-synuclein were treated with 1 mM, 100 µM, 10 µM, 1 µM, 0.1 µM, 0.01 µM and 0.001 µM of each of BK50118-A, BK50118-B, BK50118-C, CL3-499, CL3-512 and CL3-514 dissolved in an equivalent volume of DMSO for 5 h. […] The other 5 compounds were also able to lower alpha-synuclein levels but with less potency (Figure 3H,I,K–M).
SH-SY5Y cells were transiently transfected for 24 h with human wild-type α-synuclein using Fugene HD transfection reagent (Promega, E2311, Madison, WI, USA) according to manufacturer’s protocol. Cells were treated with 1 mM, 0.1 mM, 0.01 mM, 1 µM, 0.1 µM, 0.01 µM and 0.001 µM of each novel compounds (BK50118-A, BK50118-B, BK50118-C, CL3-499, CL3-512 and CL3-514) dissolved in DMSO for 5 h. Cells were then harvested on ice by removing culture medium and adding 0.2 mL 1x sodium-tris, EDTA, NP-40 (STEN) buffer (50 mM Tris (pH 7.6), 150 mM NaCl, 2 mM EDTA, 0.2 % NP-40, 0.2 % with Halt protease and phosphatase inhibitor solution (ThermoFisher, 78446). Cells were detached with a cell scraper and collected into centrifuge tubes and incubated at 4 °C for 30 min with agitation. Samples were stored at −80 °C and used for ELISA analyses. For cell viability assay, SHSY-5Y cells stably expressing human wild-type alpha-synuclein were treated with 1 mM, 0.1 mM, 0.01 mM, 1 µM, 0.1 µM, 0.01 µM and 0.001 µM of each novel compound (BK50118-A, BK50118-B, BK50118-C, CL3-499, CL3-512 and CL3-514) dissolved in DMSO for 5 h. Cell viability was determined via lactate dehydrogenase assay on culture media (Thermofisher, 88954) and MTT assay on plated cells (Thermofisher, V13154).
The ELISA for USP13 (MyBioSource, Cat # MBS9335287, San Diego, CA, USA), Human alpha-synuclein (Biolegend, Cat # 844101, San Diego, CA, USA) and specific p-Tau ser396 (Invitrogen, KHB7031, Waltham, MA, USA) were performed on cell or brain tissue extracts as described above according to manufacturers’ protocol.
All statistical analyses were performed using GraphPad Prism version 5.0 (GraphPad software, Inc, San Diego, CA, USA). Two-tailed student’s t-test was used in comparison of means of two groups. Ordinary one-way analysis of variance (ANOVA) followed by Newman–Keuls or Dunnett comparison post hoc tests were used in comparison of means of multiple groups. Asterisks denote actual p-value significances (* < 0.05, ** < 0.01, *** < 0.001 and **** < 0.0001), and N is the number of animals or the number of independent experiments (cell culture) per group. Unless otherwise indicated, data are expressed as Mean ± SD. IC50 to USP13 levels was also estimated using GraphPad Prism version 5.0 (GraphPad software, Inc, San Diego, CA, USA).

- IC50: 0.42 nM
SMILES: Fc1ccc2nccc(OCc3ccccc3)c2c1 [BK50118-C, 4-benzyloxy-6-fluoroquinoline]
